These compounds were tested against Bacillus anthracis lethal factor protease (Bacillus anthracis, UniProt P15917) (assay: biochemical).
Chain of Bacillus anthracis lethal factor protease (P15917 34-809 limits assumed): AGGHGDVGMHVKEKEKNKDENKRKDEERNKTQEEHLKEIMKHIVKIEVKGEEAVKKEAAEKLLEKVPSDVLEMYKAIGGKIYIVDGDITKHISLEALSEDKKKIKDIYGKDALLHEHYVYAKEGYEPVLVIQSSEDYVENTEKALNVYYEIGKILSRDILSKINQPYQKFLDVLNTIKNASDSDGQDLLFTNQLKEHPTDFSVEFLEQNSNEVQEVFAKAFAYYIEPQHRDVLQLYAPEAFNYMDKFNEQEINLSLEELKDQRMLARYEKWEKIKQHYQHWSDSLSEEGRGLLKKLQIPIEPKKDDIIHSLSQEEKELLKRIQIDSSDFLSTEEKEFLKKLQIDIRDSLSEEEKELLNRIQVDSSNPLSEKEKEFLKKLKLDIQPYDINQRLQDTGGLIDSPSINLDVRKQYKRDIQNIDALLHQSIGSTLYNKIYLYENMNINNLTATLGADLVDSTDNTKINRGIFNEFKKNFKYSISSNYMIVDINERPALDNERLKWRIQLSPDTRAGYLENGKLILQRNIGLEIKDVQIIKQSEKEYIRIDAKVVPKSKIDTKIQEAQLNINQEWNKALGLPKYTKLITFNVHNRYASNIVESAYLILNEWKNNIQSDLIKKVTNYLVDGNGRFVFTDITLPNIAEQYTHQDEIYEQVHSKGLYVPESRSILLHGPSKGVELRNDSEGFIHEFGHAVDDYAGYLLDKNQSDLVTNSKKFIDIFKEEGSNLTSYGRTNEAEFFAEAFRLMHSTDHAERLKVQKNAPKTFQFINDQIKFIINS
Compound `CCCC[C@@H](Cc1ccccc1)C(=O)NO` (stereo in doubt) [Compound 167550, 2-Benzyl-hexanoic acid hydroxyamide] has a Ki of 65200 nM.
In the case of `Cc1cc(CC(CCN(C)CCCc2ccc(F)cc2)C(=O)NO)cc(C)c1F` (stereo in doubt) [Compound 168172, (S)-2-(4-Fluoro-3,5-dimethyl-benzyl)-4-{[3-(4-fluoro-phenyl)-propyl]-methyl-amino}-N-hydroxy-butyramide], the Ki is reported as 290 nM.
Work on `CCCCC(Cc1ccc(F)c(C)c1)C(=O)NO` (centres unmarked) [Compound 167266, 2-(4-Fluoro-3-methyl-benzyl)-hexanoic acid hydroxyamide] yielded a Ki of 2300 nM.
Compound `CCCCC(Cc1cc(C)c(F)c(C)c1)C(=O)NO` (centres unmarked) [Compound 167533, 2-(4-Fluoro-3,5-dimethyl-benzyl)-hexanoic acid hydroxyamide] has a Ki of 1200 nM.
Compound `Cc1cc(CC(C(=O)NO)c2ccc(Br)cc2)cc(C)c1F` (centres unmarked) [Compound 167856, 2-(4-Bromo-phenyl)-3-(4-fluoro-3,5-dimethyl-phenyl)-N-hydroxy-propionamide] has a Ki of 620 nM.
`Cc1cc(CCC(=O)NO)cc(C)c1F` [Compound 167857, 3-(4-Fluoro-3,5-dimethyl-phenyl)-N-hydroxy-propionamide] showed a Ki of 1340 nM.
With `Cc1cc(CC(C)C(=O)NO)cc(C)c1F` (centres unmarked) [Compound 167858, 2-(4-fluoro-3,5-dimethylbenzyl)-N-hydroxypropanamide] the Ki was 400 nM.
For `Cc1cc(CC(C#N)C(=O)NO)cc(C)c1F` (centres unmarked) [Compound 167914, 2-Cyano-3-(4-fluoro-3,5-dimethyl-phenyl)-N-hydroxy-propionamide], the Ki was 47500 nM.
For `Cc1cc(C[C@H](C(=O)NO)c2ccc(Br)cc2)cc(C)c1F` [Compound 167973, (S)-2-(4-Bromo-phenyl)-3-(4-fluoro-3,5-dimethyl-phenyl)-N-hydroxy-propionamide], the Ki was 5700 nM.
For `Cc1cc(C[C@@H](C(=O)NO)c2ccc(Br)cc2)cc(C)c1F` [Compound 168009, (R)-2-(4-Bromo-phenyl)-3-(4-fluoro-3,5-dimethyl-phenyl)-N-hydroxy-propionamide], the Ki was 770 nM.
Work on `Cc1cc(C[C@H](CCC/C=C/C(C)C)C(=O)NO)cc(C)c1F` [Compound 168023, (S)-2-(4-Fluoro-3,5-dimethyl-benzyl)-8-methyl-non-6-enoic acid hydroxyamide] yielded a Ki of 1970 nM.
In the case of `Cc1cc(C[C@H](CCCCCC(C)C)C(=O)NO)cc(C)c1F` [Compound 168031, (S)-2-(4-Fluoro-3,5-dimethyl-benzyl)-8-methyl-nonanoic acid hydroxyamide], the Ki is reported as 2660 nM.
Work on `Cc1cc(CNCCCC[C@@H](Cc2cc(C)c(F)c(C)c2)C(=O)NO)ccc1F` [Compound 168050, (S)-2-(4-Fluoro-3,5-dimethyl-benzyl)-6-(4-fluoro-3-methyl-benzylamino)-hexanoic acid hydroxyamide] yielded a Ki of 74 nM.
In the case of `Cc1cc(C[C@@H](CCC/C=C/C(C)C)C(=O)NO)cc(C)c1F` [Compound 168051, (R)-2-(4-Fluoro-3,5-dimethyl-benzyl)-8-methyl-non-6-enoic acid hydroxyamide], the Ki is reported as 51600 nM.
In the case of `Cc1cc(C[C@@H](CCCCCC(C)C)C(=O)NO)cc(C)c1F` [Compound 168052, (R)-2-(4-Fluoro-3,5-dimethyl-benzyl)-8-methyl-nonanoic acid hydroxyamide], the Ki is reported as 300000 nM.
In the case of `Cc1cc(C[C@H](CCCCNCCc2ccc(F)cc2)C(=O)NO)cc(C)c1F` [Compound 168122, (S)-2-(4-Fluoro-3,5-dimethyl-benzyl)-6-[2-(4-fluoro-phenyl)-ethylamino]-hexanoic acid hydroxyamide], the Ki is reported as 65 nM.
With `Cc1cc(C[C@H](CCCCNCCCc2ccc(F)cc2)C(=O)NO)cc(C)c1F` [Compound 168123, (S)-2-(4-Fluoro-3,5-dimethyl-benzyl)-6-[3-(4-fluoro-phenyl)-propylamino]-hexanoic acid hydroxyamide] the Ki was 47 nM.
With `Cc1cc(CCCCCC[C@@H](Cc2cc(C)c(F)c(C)c2)C(=O)NO)ccc1F` [Compound 168124, (S)-2-(4-Fluoro-3,5-dimethyl-benzyl)-8-(4-fluoro-3-methyl-phenyl)-octanoic acid hydroxyamide] the Ki was 10300 nM.
Compound `Cc1cc(C[C@H](CCCCNCc2ccc(Cl)cc2)C(=O)NO)cc(C)c1F` [Compound 168125, (S)-6-(4-Chloro-benzylamino)-2-(4-fluoro-3,5-dimethyl-benzyl)-hexanoic acid hydroxyamide] has a Ki of 190 nM.
`Cc1cc(C[C@H](CCCCN(C)Cc2ccc(F)cc2)C(=O)NO)cc(C)c1F` [Compound 168126, (S)-6-[(4-Fluoro-benzyl)-methyl-amino]-2-(4-fluoro-3,5-dimethyl-benzyl)-hexanoic acid hydroxyamide] gave a Ki of 550 nM.
Work on `Cc1cc(C[C@H](CCCCNc2ccc(F)cc2)C(=O)NO)cc(C)c1F` [Compound 168132, (S)-2-(4-Fluoro-3,5-dimethyl-benzyl)-6-(4-fluoro-phenylamino)-hexanoic acid hydroxyamide] yielded a Ki of 2240 nM.
`Cc1cc(CCCCCC[C@@H](Cc2ccc(Cl)cc2)C(=O)NO)ccc1F` [Compound 168134, (S)-2-(4-Chloro-benzyl)-8-(4-fluoro-3-methyl-phenyl)-octanoic acid hydroxyamide] was tested, and the Ki was 64500 nM.
`Cc1cc(CNCCCC[C@@H](Cc2ccc(F)c(C)c2)C(=O)NO)ccc1F` [Compound 168139, (S)-2-(4-Fluoro-3-methyl-benzyl)-6-(4-fluoro-3-methyl-benzylamino)-hexanoic acid hydroxyamide] gave a Ki of 280 nM.
Compound `Cc1cc(C[C@H](CCCCNCc2cccc(-c3ccccc3)c2)C(=O)NO)ccc1F` [Compound 168140, (S)-6-[(Biphenyl-3-ylmethyl)-amino]-2-(4-fluoro-3-methyl-benzyl)-hexanoic acid hydroxyamide] has a Ki of 700 nM.
Compound `Cc1cc(COCCCC[C@@H](Cc2cc(C)c(F)c(C)c2)C(=O)NO)ccc1F` [Compound 168141, (S)-2-(4-fluoro-3,5-dimethylbenzyl)-6-(4-fluoro-3-methylbenzyloxy)-N-hydroxyhexanamide] has a Ki of 3600 nM.
In the case of `Cc1cc(C[C@H](CCCCNCc2ccc3c(c2)OCO3)C(=O)NO)cc(C)c1F` [Compound 168148, (S)-6-[(Benzo[1,3]dioxol-5-ylmethyl)-amino]-2-(4-fluoro-3,5-dimethyl-benzyl)-hexanoic acid hydroxyamide], the Ki is reported as 220 nM.
For `Cc1cc(C[C@H](CCCCNCc2ccccc2)C(=O)NO)cc(C)c1F` [Compound 168149, (S)-6-Benzylamino-2-(4-fluoro-3,5-dimethyl-benzyl)-hexanoic acid hydroxyamide], the Ki was 130 nM.
Compound `Cc1cc(CCCN(C)CC[C@@H](Cc2ccc(Cl)cc2)C(=O)NO)ccc1F` [Compound 168150, 2R-(4-Chloro-benzyl)-4-{[3-(4-fluoro-3-methyl-phenyl)-propyl]-methyl-amino}-N-hydroxy-butyramide] has a Ki of 1750 nM.
`Cc1cc(CCCN(C)CC[C@@H](Cc2ccc(Cl)cc2)C(=O)NO)cc(C)c1F` [Compound 168156, 2R-(4-Chloro-benzyl)-4-{[3-(4-fluoro-3,5-dimethyl-phenyl)-propyl]-methyl-amino}-N-hydroxy-butyramide] showed a Ki of 3290 nM.
`Cc1ccc(CNCCCC[C@@H](Cc2cc(C)c(F)c(C)c2)C(=O)NO)o1` [Compound 168157, (S)-2-(4-Fluoro-3,5-dimethyl-benzyl)-6-[(5-methyl-furan-2-ylmethyl)-amino]-hexanoic acid hydroxyamide] was tested, and the Ki was 130 nM.
With `O=C(NO)[C@@H](CCCCNCc1ccc(F)cc1)Cc1ccc(F)c(Cl)c1` [Compound 168164, (S)-2-(3-Chloro-4-fluoro-benzyl)-6-(4-fluoro-benzylamino)-hexanoic acid hydroxyamide] the Ki was 200 nM.
Compound `Cc1cc(C[C@H](CCCCNCC2CCCCC2)C(=O)NO)cc(C)c1F` [Compound 168170, (S)-6-(Cyclohexylmethyl-amino)-2-(4-fluoro-3,5-dimethyl-benzyl)-hexanoic acid hydroxyamide] has a Ki of 400 nM.
In the case of `CCC(CC)CNCCCC[C@@H](Cc1cc(C)c(F)c(C)c1)C(=O)NO` [Compound 168171, (S)-6-(2-Ethyl-butylamino)-2-(4-fluoro-3,5-dimethyl-benzyl)-hexanoic acid hydroxyamide], the Ki is reported as 250 nM.
For `Cc1cc(C[C@H](CCCCNCc2cnccn2)C(=O)NO)cc(C)c1F` [Compound 168179, (S)-2-(4-Fluoro-3,5-dimethyl-benzyl)-6-[(pyrazin-2-ylmethyl)-amino]-hexanoic acid hydroxyamide], the Ki was 710 nM.
Work on `Cc1cc(C[C@H](CCCCNCc2cc3ccccc3s2)C(=O)NO)cc(C)c1F` [Compound 168180, (S)-6-[(Benzo[b]thiophen-2-ylmethyl)-amino]-2-(4-fluoro-3,5-dimethyl-benzyl)-hexanoic acid hydroxyamide] yielded a Ki of 400 nM.
